In series [1] the test system is Staphylococcus aureus. Kind of series: Agar/disk diffusion inhibition zone, Staphylococcus aureus. Format: cell-based. The following applies: diffusion method. (In agar diffusion tests the substance spreads into inoculated agar from a disc or well.)
For series [2], the system named is avian influenza HPAI-H5N1 (AIV). Further details: species or system avian influenza virus HPAI-H5N1. As to conditions: in vivo.
Series [3] relates to Haemophilus (Gram –ve). Description: MIC measurement by serial dilution, Haemophilus. It counts as cell-based. As to conditions: read-out: MIC Haemophilus (Gram –ve).
The nature of series [4]: Total antioxidant capacity (TAC), phosphomolybdenum method. The following applies: for Total antioxidant capacity: 500 µg/ml in methanol, 95 °C 90 min, 695 nm, means ± S.D., n = 3.
The subject of series [5] is avian influenza HPAI-H5N1 (AIV). On the set-up: species or system avian influenza virus HPAI-H5N1. The following applies: in vivo. This is another data set of the same source.
Series [6] deals with Staphylococcus aureus. Kind of series: MIC measurement by serial dilution, Staphylococcus aureus. Format: cell-based. The following applies: 37 °C, 24–72 h, read-out: MIC Staph (Gram + ve).
A further series deals with Candida albicans. Kind of series: Agar diffusion antifungal activity, Candida albicans. As to conditions: diffusion method. Format: cell-based.
The test system of series [7] is embryonated chicken SPF eggs. The following applies: in vivo.
In series [8] the test system is Haemophilus (Gram –ve). Description: Agar/disk diffusion inhibition zone, Haemophilus. Format: cell-based. The following applies: diffusion method.
A further series has as its system SPF chicks. Description: Immune-boosting properties in vaccinated SPF chicks (humeral response). As to conditions: for Humeral response of vaccinated groups which received each tested compound separately: SPF chicks, vaccine-only group 7 log2; for Immune-boosting properties (in words): antibody titer in serum of vaccinated chicks. Format: in vivo, chicken.

Converted amounts (≈) assume the structure as drawn.

Usually MIC stands for the least concentration at which growth counts as inhibited.

In the case of `Cc1ccc(C2=CC(=Cc3c(C)nn(-c4ccccc4)c3Cl)C(=O)N2)cc1` [Compound 4, 3-((5-Chloro-3-methyl-1-phenyl-1H-pyrazol-4-yl)methylene)-5-(p-tolyl)-1,3-dihydro-2H-pyrrol-2-one], in the series with Staphylococcus aureus [1], the “Inhibition diameter Staph (Gram + ve)” value is 25 mm. Besides, in [2], the “Antiviral activity against avian influenza virus (in words)” value (“Antiviral activity” for short) is listed as “remarked antiviral activity” and the “Virus titer with compound” value was 10^1. The MIC in the series with Haemophilus (Gram –ve) [3] is 6 µg/mL (≈ 16 µM). Further, the Total antioxidant capacity in series [4] worked out at 278.56 ± 4.61 mg AAE/g dry compound. In series [5], the TI came out at 83.3. Also, the MIC with Staphylococcus aureus [6] came to 5 µg/mL. In the series on Candida albicans, the “Candida albicans (diameter of inhibition zone)” value turned out to be 25 mm. For the same molecule, the CC50 in [7] was 500 > µl/ egg. The “Inhibition diameter Haemophilus (Gram –ve)” value in the series on Haemophilus (Gram –ve) [8] came out at 22 mm. In the series with SPF chicks, the “Humeral response of vaccinated groups which received each tested compound separately” value (“Humeral response” for short) is listed as 7.5 log2 and the “Immune-boosting properties (in words)” value is reported as “special immune-boosting properties”.

Turning to `CC(=O)N(C(C)=O)N1C(=O)C(=Cc2c(C)nn(-c3ccccc3)c2Cl)C=C1c1ccc(C)cc1` [Compound 13, N-Acetyl-N-(3-((5-chloro-3-methyl-1-phenyl-1H-pyrazol-4-yl)methylene)-2-oxo-5-(p-tolyl)-2,3-dihydro-1H-pyrrol-1-yl)acetamide], the “Inhibition diameter Staph (Gram + ve)” value in the series on Staphylococcus aureus [1] is 14 mm. The “Antiviral activity” value in [2] is listed as “less antiviral activity”. The MIC in the series with Haemophilus (Gram –ve) [3] came to 10 µg/mL (≈ 21.1 µM). In series [4], the “Antioxidant activity (in words)” value was “Moderate antioxidant activity” and the Total antioxidant capacity was determined as 190.0 ± 1.67 mg AAE/g dry compound. Moreover, in series [5], the TI is listed as 71.42. In the series on Staphylococcus aureus [6], the MIC amounted to 9 µg/mL. The “Candida albicans (diameter of inhibition zone)” value in the series on Candida albicans was found to be 14 mm. In addition, the CC50 in series [7] was 500 > µl/ egg. Moreover, the “Inhibition diameter Haemophilus (Gram –ve)” value with Haemophilus (Gram –ve) [8] came out at 12 mm. Further, the “Humeral response” value in the series with SPF chicks is listed as 6.9 log2.

Turning to `Cc1ccc(C(=O)CC(=Cc2c(C)nn(-c3ccccc3)c2Cl)C(=O)NCC(C)C)cc1` [Compound 6, 2-((5-Chloro-3-methyl-1-phenyl-1H-pyrazol-4-yl)methylene)-N-isobutyl-4-oxo-4-(p-tolyl)butanamide], the “Inhibition diameter Staph (Gram + ve)” value with Staphylococcus aureus [1] is 22 mm. In [2], the “Antiviral activity” value was “remarked antiviral activity” and the “Virus titer with compound” value was 10^1. Besides, the MIC in the series on Haemophilus (Gram –ve) [3] stood at 5 µg/mL (≈ 11.1 µM). In series [4], the Total antioxidant capacity stood at 248.67 ± 4.11 mg AAE/g dry compound. Besides, the TI in series [5] came to 83.3. Besides, the MIC in the series with Staphylococcus aureus [6] amounted to 4 µg/mL. Moreover, in the series on Candida albicans, the “Candida albicans (diameter of inhibition zone)” value came out at 20 mm. For the same molecule, the CC50 in series [7] was 500 > µl/ egg. Besides, the “Inhibition diameter Haemophilus (Gram –ve)” value in the series on Haemophilus (Gram –ve) [8] is 25 mm. For the same molecule, in the series on SPF chicks, the “Humeral response” value is 7.4 log2 and the “Immune-boosting properties (in words)” value was “special immune-boosting properties”.

Regarding `Cc1ccc(C2=CC(=Cc3c(C)nn(-c4ccccc4)c3Cl)C(=O)N2NC(=O)c2ccccc2)cc1` [Compound 14, N-(3-((5-Chloro-3-methyl-1-phenyl-1H-pyrazol-4-yl)methylene)-2-oxo-5-(p-tolyl)-2,3-dihydro-1H-pyrrol-1-yl)benzamide], the “Inhibition diameter Staph (Gram + ve)” value in the series with Staphylococcus aureus [1] amounted to 7 mm. In addition, the “Antiviral activity” value in series [2] is given as “little antiviral activity”. Moreover, the MIC in the series with Haemophilus (Gram –ve) [3] was 16 µg/mL (≈ 32.3 µM); with Staphylococcus aureus [6] it was 16 µg/mL. This molecule also came in with a Total antioxidant capacity in [4] of 261.0 ± 2.48 mg AAE/g dry compound. For the same molecule, the TI in [5] is recorded as 55.5. In the series with Candida albicans, the “Candida albicans (diameter of inhibition zone)” value came out at 7 mm. Besides, the CC50 in series [7] is given as 500 > µl/ egg. In addition, the “Inhibition diameter Haemophilus (Gram –ve)” value with Haemophilus (Gram –ve) [8] amounted to 8 mm. Also, in the series with SPF chicks, the “Humeral response” value was determined as 7.2 log2.

Consider `Cc1ccc(C(=O)CC(=Cc2c(C)nn(-c3ccccc3)c2Cl)C(=O)NCc2ccccc2)cc1` [Compound 5, N-Benzyl-2-((5-chloro-3-methyl-1-phenyl-1H-pyrazol-4-yl)methylene)-4-oxo-4-(p-tolyl)butanamide], for which the “Inhibition diameter Staph (Gram + ve)” value with Staphylococcus aureus [1] was found to be 24 mm. In addition, in series [2], the “Antiviral activity” value was “remarked antiviral activity” and the “Virus titer with compound” value is reported as 10^1. For the same molecule, the MIC in the series with Haemophilus (Gram –ve) [3] worked out at 3 µg/mL (≈ 6.2 µM). Also, the Total antioxidant capacity in series [4] is 221.14 ± 4.63 mg AAE/g dry compound. The TI in series [5] came out at 96.77. In addition, the MIC with Staphylococcus aureus [6] was 3 µg/mL. The “Candida albicans (diameter of inhibition zone)” value in the series with Candida albicans was 22 mm. Moreover, the CC50 in [7] is recorded as 300 > µl/ egg. The “Inhibition diameter Haemophilus (Gram –ve)” value in the series on Haemophilus (Gram –ve) [8] was found to be 23 mm. In addition, in the series on SPF chicks, the “Humeral response” value is 7.4 log2 and the “Immune-boosting properties (in words)” value is “special immune-boosting properties”.

With `Cc1ccc(C(=O)CC(=Cc2c(C)nn(-c3ccccc3)c2Cl)C(=O)NN=Cc2cn(-c3ccccc3)nc2-c2ccccc2)cc1` [Compound 16, 2-((5-Chloro-3-methyl-1-phenyl-1H-pyrazol-4-yl)methylene)-N'-((1,3-diphenyl-1H-pyrazol-4-yl)methylene)-4-oxo-4-(p-tolyl)butanehydrazide], the “Inhibition diameter Staph (Gram + ve)” value in the series with Staphylococcus aureus [1] is reported as 22 mm. For the same molecule, in series [2], the “Antiviral activity” value is on record as “remarked antiviral activity” and the “Virus titer with compound” value is recorded as 10^1. For the same molecule, the MIC in the series with Haemophilus (Gram –ve) [3] worked out at 6 µg/mL (≈ 9.39 µM). The Total antioxidant capacity in [4] was 205.82 ± 2.45 mg AAE/g dry compound. In series [5], this molecule had a TI of 83.3. Further, in the series on Staphylococcus aureus [6], the MIC is 5 µg/mL. Moreover, the “Candida albicans (diameter of inhibition zone)” value in the series with Candida albicans is recorded as 23 mm. Besides, the CC50 in series [7] was 500 > µl/ egg. Also, the “Inhibition diameter Haemophilus (Gram –ve)” value in the series on Haemophilus (Gram –ve) [8] was 23 mm. Besides, in the series on SPF chicks, the “Humeral response” value amounted to 7.2 log2 and the “Immune-boosting properties (in words)” value is given as “special immune-boosting properties”.

Consider `Cc1ccc(C2=CC(=Cc3c(C)nn(-c4ccccc4)c3Cl)C(=O)O2)cc1` [Compound 3, 3-((5-Chloro-3-methyl-1-phenyl-1H-pyrazol-4-yl)methylene)-5-(p-tolyl)furan-2(3H)-one], for which, in the series on Staphylococcus aureus [1], the “Inhibition diameter Staph (Gram + ve)” value is reported as 23 mm. For the same molecule, in series [2], the “Antiviral activity” value is “remarked antiviral activity” and the “Virus titer with compound” value is 10^1. For the same molecule, the MIC in the series on Haemophilus (Gram –ve) [3] worked out at 1 µg/mL (≈ 2.65 µM). For the same molecule, in series [4], the “Antioxidant activity (in words)” value is “Moderate antioxidant activity” and the Total antioxidant capacity was 156.33 ± 4.04 mg AAE/g dry compound. This molecule also returned a TI in series [5] of 96.77. In the series on Staphylococcus aureus [6], the MIC was 2 µg/mL. For the same molecule, the “Candida albicans (diameter of inhibition zone)” value in the series on Candida albicans amounted to 24 mm. In addition, the CC50 in [7] was 300 > µl/ egg. In addition, in the series with Haemophilus (Gram –ve) [8], the “Inhibition diameter Haemophilus (Gram –ve)” value stood at 22 mm. Moreover, in the series on SPF chicks, the “Humeral response” value came out at 7.3 log2 and the “Immune-boosting properties (in words)” value is recorded as “special immune-boosting properties”.

The values are drawn from article PMC10239048, “Synthesis and antioxidant, antimicrobial, and antiviral activity of some pyrazole-based heterocycles using a 2(3H)-furanone derivative” (Journal of the Iranian Chemical Society, 2023).
